Entries after “also recorded” stand apart in the source; their conditions may differ.
Legend:
NO synthase = assay: Cuff single pulse waveform after endothelial stimulation with NO synthase blocked; type: in vivo, human; conditions: cuff inflated to 70 mmHg, FIG. 3
From the text: Both the amplitude and slope of the rising edge of the pulse increase markedly after endothelial stimulation.
In an artery with intact endothelial function, both pulse height (maximal cross-sectional arterial area) and compliance (maximum slope of the rising edge) increase markedly over baseline. […] FIG. 4 illustrates how a five minute cuff occlusion and the ensuring reactive hyperemia lead to major increases in area change per pulse and the maximum derivative of the area per pulse. Both metrics return to baseline levels after 20 minutes. FIG. 5 confirms the repeatability of the protocol by illustrating the effects of a series of two cuff occlusion periods. We see from FIG. 6 that only a small slow drift in the measured quantities occurs when no reactive hyperemic stimulus is applied.
A stimulus is then applied to the subject. Any of a number of stimuli expected to alter endothelial function are contemplated. Such stimuli include, for example, occlusion of blood flow, and/or application of one or more drugs to the subject. Illustrative drugs include, for example, drugs that act as NO agonists (e.g. acetylcholine), β2-adrenergic agonists such as albuterol, acoustic/mechanical tissue vibration, transcutaneous low frequency ultrasound (see, e.g., Iida et al. (2006) J. Amer. Coll. Cardiol., 48(3): 532-537), and the like. […]

human subjects = assay: Blood pressure cuff measurement of pulse amplitude (arterial area) and compliance response to sublingual nitroglycerin; type: in vivo; conditions: 0.4 mg sublingual NG, FIG. 10, all cases where NG was administered
From the text: We contend that such studies are unnecessary in order to make a determination that a method is effective in assessing endothelial function. Physical methods for arterial EF evaluation typically measure changes in the material properties of the artery. […] A major advantage of this method is that response to NG is intact even in individuals with endothelial dysfunction, so there is no need to perform a correlation analysis between two measurements.
We examined three individuals in the age-range 28-38. All subjects had Framingham risk scores of 1% or less, and had no history of cardiovascular disease. Each individual was assessed at least three times before and after RH induced by five minutes of suprasystolic cuff occlusion. […] Sensitivity to a 0.4 mg dose of sublingual NG was assessed three times in two individuals.
Sensitivity to a 0.4 mg dose of sublingual NG was assessed three times in two individuals.
We studied a single quantity relating to the recorded pressure data: the pulse amplitude, which we posit is proportional to the arterial area. During the post stimulus interval, pressure data from the cuff were recorded approximately every 80 seconds, for a period of 30 seconds. During each recording interval, the cuff was inflated to 70 mmHg, which was always below the measured diastolic pressure of the subject. […]

| SMILES | effect on increase of pulse amplitude (height) and slope of rising edge after endothelial stimulation (NO synthase) | increase in relative change in area (human subjects) | increase in relative change in compliance (human subjects) |
| --- | --- | --- | --- |
| COC(=O)[C@@H](N)CCCNC(=N)N[N+](=O)[O-] [L-NAME] | greatly attenuates this response; also recorded: greatly attenuated |  |  |
| O=[N+]([O-])OCC(CO[N+](=O)[O-])O[N+](=O)[O-] [NG, nitroglycerin] |  | more than 30% | more than 30% |
